Source: publication PMC10175561, “Two single-point mutations in Ankyrin Repeat one drastically change the threshold temperature of TRPV1” (Nature Communications, 2023)

Biological target: T1, axTRPV1 (Ambystoma mexicanum, UniProt A0A5K7X138)
T1 construct: gene TRPV1; full-length cDNA in pGEMHE, expressed in Xenopus oocytes; cloned in the authors' earlier work
T1 sequence (A0A5K7X138 1-858): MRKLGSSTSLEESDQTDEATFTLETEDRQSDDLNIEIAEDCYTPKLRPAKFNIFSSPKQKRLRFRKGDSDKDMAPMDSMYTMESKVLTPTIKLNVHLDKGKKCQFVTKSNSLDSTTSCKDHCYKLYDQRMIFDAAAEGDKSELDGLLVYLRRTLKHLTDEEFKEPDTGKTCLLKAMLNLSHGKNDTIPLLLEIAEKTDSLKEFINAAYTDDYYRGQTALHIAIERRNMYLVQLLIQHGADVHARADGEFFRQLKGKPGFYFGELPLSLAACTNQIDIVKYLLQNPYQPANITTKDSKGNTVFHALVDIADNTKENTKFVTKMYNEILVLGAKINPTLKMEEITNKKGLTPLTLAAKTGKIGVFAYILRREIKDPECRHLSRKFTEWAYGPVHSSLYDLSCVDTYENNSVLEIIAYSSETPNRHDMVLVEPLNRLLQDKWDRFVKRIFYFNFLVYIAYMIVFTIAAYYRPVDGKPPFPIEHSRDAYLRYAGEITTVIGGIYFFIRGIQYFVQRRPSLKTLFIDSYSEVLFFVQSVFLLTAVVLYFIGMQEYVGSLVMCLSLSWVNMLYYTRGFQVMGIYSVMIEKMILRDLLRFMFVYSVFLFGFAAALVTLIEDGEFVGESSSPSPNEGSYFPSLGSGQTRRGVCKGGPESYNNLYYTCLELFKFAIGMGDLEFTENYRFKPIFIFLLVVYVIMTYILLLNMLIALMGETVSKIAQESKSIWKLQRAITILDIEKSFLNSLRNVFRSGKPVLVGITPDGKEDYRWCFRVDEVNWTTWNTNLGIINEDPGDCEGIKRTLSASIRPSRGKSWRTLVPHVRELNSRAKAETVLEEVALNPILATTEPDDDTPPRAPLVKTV
Assay: two-electrode voltage clamp, Xenopus oocytes
Format: cell-based
Conditions: agonist, dose-dependent activation; current at -80 mV; bath pH 7.4

Compound: COc1cc(CNC(=O)CCCC/C=C/C(C)C)ccc1O [capsaicin]
- two-electrode voltage clamp, Xenopus oocytes: Capsaicin and acid activated all TRPV1s in a dose-dependent manner
